Like-named read-outs stand apart in the source and are kept apart here.
What was measured:
[1] = test system: BV-2 cells; assay: Cell viability (MTT analysis) of beta-amyloid treated BV-2 cells; assay type: cell-based; conditions: Mus musculus, BV-2 cells, average of three experiments
Protocol: Beta-amyloid (Aβ25-35, Sigma Chemical Co., St. Louis, Mo., USA) was diluted with aseptic desalted water and preservative solution (1 mM, GIBCO), and kept in aliquots at −70° C. To the treatment of beta-amyloid, beta-amyloid preservative solution was diluted to desired concentrations in a treatment medium (DMEM, GIBCO). The reagents were newly provided as a preservative solution (10 mM) under DMSO (dimethylsulfoxide), and diluted in treatment medium to desired concentrations.
BV-2 microglia cells (allotted from Pharmacology Division of Ajou University) were cultivated in DMEM (Dulbecco's Modified Eagle's Medium) supplemented with 5% fetal bovine serum (Invitrogen, Carlsbad, Calif., USA), sou/Ml penicillin (Invitrogen, Carlsbad, Calif., USA), and 50 μg/Ml streptomycin (Invitrogen, Carlsbad, Calif., USA) under the atmosphere condition with 5% CO2 and 95% air at 37° C. The medium was replaced once a day, the cells were plate-cultured in a density according to the scale of each experiment.
BV-2 cells were plate-cultured in 96-well plate at the density of 5×10^4, the cell viability was measured according to a conventional MTT analysis method and lactate dehydrogenase (LDH) analysis method. The MTT analysis depends on the metabolism ability of mitochondria of living cell, and reflexes intracellular redox states. The cultured cells were treated with MTT a solution (final concentration: 1 mg/Ml) for 4 hours. Deep blue formazan crystal generated in the original cells was dissolved in a lysis buffer, and then, the absorbance was detected at 595 nm with microplate reader. The LDH activity released from the culture medium was detected, which was evaluated as a cell death index. The culture medium was added to a reagent (test, Sigma Chemical Co, St. Louis, Mo., USA) containing sodium lactate, NADH and sodium pyruvate, and then, the absorbance reduction by NADH at 340 nm was measured. The result was calculated assuming that the LDH activity in homogenate solution of the non-treated control is 100%.
[…] For microscope analysis, BV-2 cells were used in 6-well plate at the density of 5×10^5 cells/well, for MTT analysis, BV-2 cells were used in 96-well plate at the density of 5×10^4 cells/well.
The obtained prevention effects of KHG25967 compound on toxicity induced by beta-amyloid in BV-2 cells were FIGS. 1A and 1b.
For MTT analysis, BV-2 cells were used on 96-well plate in the density of 5×10^4 cells/well. The quantitative analysis results (unit: %) for the cell viability obtained by MTT analysis were shown in Table 2, wherein the values are represented by the average of three experiments per each concentration.

[2] = compound 50 μM for 24 hours after 50 μM beta-amyloid for 2 hours, read-out: cell viability by MTT analysis
[3] = BV-2, read-out: cell viability by MTT analysis, compound 500 nM for 24 hours after 50 μM beta-amyloid for 2 hours
[4] = compound 500 nM for 24 hours after 50 μM beta-amyloid for 2 hours, read-out: cell viability by MTT analysis

| Compound | melting point [°C] | viability at 0.5 µM [1, 4] [%] | other results |
| --- | --- | --- | --- |
| CCOC(=O)CNC(=O)Nc1nc2ccc(Cl)cc2o1 [KHG25989, ethyl 2-(3-(6-chlorobenzo[d]oxazole-2-yl)ureido)acetate] |  |  | viability at 50 µM [1, 2]: 55% |
| COc1ccc2nc(NC(=O)NCC(=O)O)sc2c1 [KHG26346, 2-(3-(6-methoxybenzo[d]thiazole-2-yl)ureido)acetic acid] | 198.3 |  |  |
| O=C(O)CNC(=O)Nc1nc2ccccc2s1 [KHG26096, potassium 2-(3-benzo[d]thiazole-2-ylureido)acetate] |  |  | viability at 0.5 µM [1, 3]: 72% |
| Cn1c(NC(=S)NCC(=O)O)nc2ccccc21 [KHG26334, 2-(3-(1-methyl-1H-benzo[d]imidazole-2-yl)thioureido)acetic acid] | 172 | 75 |  |
| CCOC(=O)CCNC(=O)Nc1nc2ccccc2[nH]1 [KHG26027, ethyl 3-(3-1H-benzo[d]imidazole-2-ylureido)propanoate] | 264 |  | viability at 50 µM [1, 2]: 45% |
| Cc1cccc2sc(NC(=O)NCC(=O)O)nc12 [KHG26356, 2-(3-(4-methylbenzo[d]thiazole-2-yl)ureido)acetic acid] | 203 |  |  |
| CCCCOC(=O)CNC(=O)Nc1nc2ccccc2s1 [KHG25954, butyl 2-(3-benzo[d]thiazole-2-ylureido)acetate] | 294 |  | viability at 50 µM [1, 2]: 48% |
| Cn1c(NC(=O)NCCC(=O)O)nc2ccccc21 [KHG26357, 3-(3-(1-methyl-1H-benzo[d]imidazole-2-yl)ureido)propane acid] | 237 |  |  |
| O=C(O)CNC(=O)Nc1nc2c(Cl)cccc2s1 [KHG26352, 2-(3-(4-chlorobenzo[d]thiazole-2-yl)ureido)acetic acid] | 198 |  |  |
| Cc1cccc2sc(NC(=S)NCC(=O)O)nc12 [KHG26340, 2-(3-(4-methylbenzo[d]thiazole-2-yl)thioureido)acetic acid] | 214 | 78 |  |
| CCOC(=O)CNC(=O)Nc1nc2ccc(Cl)cc2s1 [KHG26349, ethyl 2-(3-(6-chlorobenzo[d]thiazole-2-yl)ureido)acetate] | 295 |  |  |
| CCOC(=O)CNC(=S)Nc1nc2ccc(C)cc2s1 [KHG26305, ethyl 2-(3-(6-methylbenzo[d]thiazole-2-yl)thioureido)acetate] | 290.8 | 37 |  |
| Cc1ccc(CNC(=O)Nc2nc3ccccc3s2)cc1 [KHG25948, 1-(benzo[d]thiazole-2-yl)-3-(4-methylbenzyl)urea] | 257 |  | viability at 50 µM [1, 2]: 30% |
| CCOC(=O)CNC(=S)Nc1nc2cc(C)c(C)cc2s1 [KHG26307, ethyl 2-(3-(5,6-dimethylbenzo[d]thiazole-2-yl)thioureido)acetate] | 255 | 48 |  |
| CCOC(=O)CNC(=S)Nc1nc2ccc(OC)cc2s1 [KHG26308, ethyl 2-(3-(6-methoxybenzo[d]thiazole-2-yl)thioureido)acetate] | 324 | 44 |  |
| O=C(NCc1nn[nH]n1)Nc1nc2ccccc2s1 [KHG26345] | 249 | 63 |  |
| CCOC(=O)CNC(=O)Nc1nc2cc(C)c(C)cc2s1 [KHG26353, ethyl 2-(3-(5,6-dimethylbenzo[d]thiazole-2-yl)ureido)acetate] | 268 |  |  |
| O=C(NCCO)Nc1nc2ccccc2s1 [KHG26279, 1-(benzo[d]thiazole-2-yl)-3-(2-hydroxyethyl)urea] | 223 | 36 |  |
| CCOC(=O)CNC(=O)Nc1nc2ccc(OCC)cc2s1 [KHG26347, ethyl 2-(3-(6-ethoxybenzo[d]thiazole-2-yl)ureido)acetate] | 264 |  |  |
| CCOC(=O)CCNC(=O)Nc1nc2ccccc2s1 [KHG26005, ethyl 3-(3-benzo[d]thiazole-2-ylureido)propanoate] | 256 |  | viability at 50 µM [1, 2]: 40% |

| Compound | melting point [°C] | viability at 0.5 µM [1, 4] [%] | other results |
| --- | --- | --- | --- |
| CCOC(=O)CNC(=S)Nc1nc2c(C)cccc2s1 [KHG26306, ethyl 2-(3-(4-methylbenzo[d]thiazole-2-yl)thioureido)acetate] | 219 | 62 |  |
| Cc1cc2nc(NC(=O)NCC(=O)O)sc2cc1C [KHG26354, 2-(3-(5,6-dimethylbenzo[d]thiazole-2-yl)ureido)acetic acid] | 198 |  |  |
| CCOC(=O)CNC(=S)Nc1nc2ccc(F)cc2s1 [KHG26310, ethyl 2-(3-(6-fluorobenzo[d]thiazole-2-yl)thioureido)acetate] | 160 | 30 |  |
| Cc1cc2nc(NC(=S)NCC(=O)O)sc2cc1C [KHG26335, 2-(3-(5,6-dimethylbenzo[d]thiazole-2-yl)thioureido)acetic acid] | 212 | 81 |  |
| CCOC(=O)CNC(=O)Nc1nc2c(Cl)cccc2s1 [KHG26351, ethyl 2-(3-(4-chlorobenzo[d]thiazole-2-yl)ureido)acetate] | 213 |  |  |
| O=C(O)CCCNC(=O)Nc1nc2ccccc2s1 [KHG26025, 4-(3-benzo[d]thiazole-2-ylureido)butanoic acid] | 210 |  | viability at 0.1 µM ([1]; compound 100 nM for 24 hours after 50 μM beta-amyloid for 2 hours): 73%; viability at 1 µM ([1]; compound 1000 nM for 24 hours after 50 μM beta-amyloid for 2 hours): 89%; viability at 50 µM [1, 2]: 90% |
| Cn1c(NC(=O)NCCC(=O)O)nc2ccccc21 [KHG26222, potassium 3-(3-(1-methyl-1H-benzo[d]imidazole-2-yl)ureido)propanoate] |  |  | viability at 0.5 µM [1, 3]: 33% |
| CCOC(=O)CCCNC(=O)Nc1nc2ccccc2n1C [KHG26031, ethyl 4-(3-(1-methyl-1H-benzo[d]imidazole-2-yl)ureido)butanoate] | 81 |  | viability at 50 µM [1, 2]: 56% |
| COCCNC(=O)Nc1nc2ccccc2s1 [KHG26344, 1-(benzo[d]thiazole-2-yl)-3-(2-methoxyethyl)urea] | 257 | 58 |  |
| O=C([O-])CNC(=O)Nc1nc2c(Cl)cccc2s1.[K+] [KHG26178, potassium 2-(3-(4-chlorobenzo[d]thiazole-2-yl)ureido)acetate] | 259 |  | viability at 0.5 µM [1, 3]: 59% |
| O=C([O-])CCNC(=O)Nc1nc2ccccc2s1.[K+] [KHG26220, potassium 3-(3-benzo[d]thiazole-2-ylureido)propanoate] | 249 |  | viability at 0.5 µM [1, 3]: 33% |
| CCOC(=O)CCCNC(=O)Nc1nc2ccccc2s1 [KHG26004, ethyl 4-(3-benzo[d]thiazole-2-ylureido)butanoate] | 278 |  | viability at 50 µM [1, 2]: 37% |
| Cn1c(NC(=O)NCC(=O)O)nc2ccccc21 [KHG26280, 2-(3-(1-methyl-1H-benzo[d]imidazole-2-yl)ureido)acetic acid] | 200 | 33 |  |
| Cn1c(NC(=O)NCCCC(=O)O)nc2ccccc21 [KHG26358, 4-(3-(1-methyl-1H-benzo[d]imidazole-2-yl)ureido)butanoic acid] | 197 |  |  |
| CCOc1ccc2nc(NC(=O)NCC(=O)O)sc2c1 [KHG26348, 2-(3-(6-ethoxybenzo[d]thiazole-2-yl)ureido)acetic acid] | 197 |  |  |
| COc1ccc2nc(NC(=O)NCC(=O)O)sc2c1 [KHG26175, potassium 2-(3-(6-methoxybenzo[d]thiazole-2-yl)ureido)acetate] |  |  | viability at 0.5 µM [1, 3]: 76% |
| Cc1ccc2nc(NC(=O)NCC(=O)O)sc2c1 [KHG26355, 2-(3-(6-methylbenzo[d]thiazole-2-yl)ureido)acetic acid] | 201 |  |  |
| CCNC(=O)Nc1nc2ccccc2s1 [KHG26332, 1-(benzo[d]thiazole-2-yl)-3-ethylurea] |  |  | viability at 50 µM ([1]; BV-2, read-out: cell viability by MTT analysis, compound 50 μM for 24 hours after 50 μM beta-amyloid for 2 hours): 18% |
| O=C(O)CNC(=O)Nc1nc2ccc(Cl)cc2s1 [KHG26350, 2-(3-(6-chlorobenzo[d]thiazole-2-yl)ureido)acetic acid] | 216 |  |  |
| Cc1ccc(CNC(=O)Nc2nc3ccc(Cl)cc3o2)cc1 [KHG25990] |  |  | viability at 50 µM [1, 2]: 37% |

From US9012481B2, “Benzoarylureido compounds, and composition for prevention or treatment of neurodegenerative brain disease containing the same” (Korea Institute of Science and Technology, priority 2009, dated 2015)
